Columns and labels:
[1] = GA glucuronidation kinetics in beagle dog liver microsomes; format: in vitro ADME, beagle dogs; conditions: DLM; for microsomal CLint / Km at 30 min: beagle, dog; for microsomal CLint: dog liver microsomes; for Km at 30 min: liver microsomes, pH 7.4, Km (KS), Michaelis–Menten
[2] = target: T1, recombinant human UGT2B15 (Homo sapiens, UniProt P54855); assay: GA glucuronidation by recombinant UGT2B15; format: in vitro ADME; conditions: UGT2B15, whole range of substrate concentrations
T1 sequence (P54855 24-530): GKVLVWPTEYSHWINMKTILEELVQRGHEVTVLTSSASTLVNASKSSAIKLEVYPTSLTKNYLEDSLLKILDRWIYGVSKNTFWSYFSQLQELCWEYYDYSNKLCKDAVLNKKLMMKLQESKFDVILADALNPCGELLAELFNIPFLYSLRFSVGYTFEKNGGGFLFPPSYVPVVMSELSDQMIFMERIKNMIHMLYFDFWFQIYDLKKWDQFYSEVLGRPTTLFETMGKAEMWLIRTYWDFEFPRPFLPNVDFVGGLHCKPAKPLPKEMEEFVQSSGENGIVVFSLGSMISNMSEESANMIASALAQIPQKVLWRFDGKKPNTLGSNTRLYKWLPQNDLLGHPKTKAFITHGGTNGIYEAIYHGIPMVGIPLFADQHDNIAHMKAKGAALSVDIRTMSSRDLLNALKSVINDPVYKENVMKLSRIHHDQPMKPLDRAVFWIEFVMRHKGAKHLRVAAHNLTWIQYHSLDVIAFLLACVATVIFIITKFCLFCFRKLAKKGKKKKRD

[3] = rats; cited from earlier work
[4] = GA glucuronidation kinetics in rat intestinal microsomes; format: in vitro ADME, Sprague-Dawley rats
CYP3A4 = conditions: earlier study; cited from earlier work
[5] = GA glucuronidation kinetics in human liver microsomes; format: in vitro ADME; conditions: HLM; for microsomal CLint / Km at 60 min: both, human; for microsomal CLint: human liver microsomes; for Km at 60 min: liver microsomes, pH 7.4, Km (KS), Michaelis–Menten
UGT1A8 = target: T2, UGT1A8 (Homo sapiens, UniProt Q9HAW9); assay: GA glucuronidation by recombinant UGT1A8; format: in vitro ADME
T2 sequence (Q9HAW9 26-530): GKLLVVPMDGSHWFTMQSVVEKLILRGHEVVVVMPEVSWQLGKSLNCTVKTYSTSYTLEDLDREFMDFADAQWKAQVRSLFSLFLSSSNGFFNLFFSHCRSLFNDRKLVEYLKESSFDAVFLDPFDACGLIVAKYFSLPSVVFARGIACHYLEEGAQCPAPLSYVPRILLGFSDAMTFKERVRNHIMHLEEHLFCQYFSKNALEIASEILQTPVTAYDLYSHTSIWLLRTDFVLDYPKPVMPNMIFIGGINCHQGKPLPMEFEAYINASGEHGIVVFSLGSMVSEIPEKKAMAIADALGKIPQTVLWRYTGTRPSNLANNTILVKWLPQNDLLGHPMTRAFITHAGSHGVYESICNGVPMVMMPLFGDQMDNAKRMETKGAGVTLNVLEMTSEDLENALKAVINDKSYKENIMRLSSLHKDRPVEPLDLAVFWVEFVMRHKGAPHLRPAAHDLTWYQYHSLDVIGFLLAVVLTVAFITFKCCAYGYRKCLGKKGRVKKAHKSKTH

UGT1A3 = target: T3, UGT1A3 (Homo sapiens, UniProt P35503); assay: GA glucuronidation kinetics by recombinant UGT1A3; format: in vitro ADME; conditions: recombinant human UGT1A3, pH 7.4
T3 sequence (P35503 29-534): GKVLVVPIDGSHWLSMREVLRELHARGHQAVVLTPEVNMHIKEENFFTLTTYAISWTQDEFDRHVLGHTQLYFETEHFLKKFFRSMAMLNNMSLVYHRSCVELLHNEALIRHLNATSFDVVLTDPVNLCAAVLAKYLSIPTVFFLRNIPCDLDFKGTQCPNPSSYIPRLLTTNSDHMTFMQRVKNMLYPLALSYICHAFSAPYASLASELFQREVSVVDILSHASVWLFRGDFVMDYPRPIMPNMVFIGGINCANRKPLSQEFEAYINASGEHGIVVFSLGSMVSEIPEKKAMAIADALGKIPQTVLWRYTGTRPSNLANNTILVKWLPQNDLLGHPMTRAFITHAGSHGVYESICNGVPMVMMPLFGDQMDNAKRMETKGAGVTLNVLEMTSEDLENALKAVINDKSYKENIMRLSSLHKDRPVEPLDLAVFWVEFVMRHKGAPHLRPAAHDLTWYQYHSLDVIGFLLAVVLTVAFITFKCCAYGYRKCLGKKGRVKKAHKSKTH

[6] = GA glucuronidation kinetics in human intestinal microsomes; format: in vitro ADME; conditions: for microsomal CLint: human intestinal microsomes

- microsomal CLint ([1]; pH 7.4, Clint, M1 formation): 71 µL/min/mg
- microsomal CLint ([1]; pH 7.4, Clint, M2 formation): 214 µL/min/mg
- microsomal CLint ([1]; pH 7.4, Cltotal, M1 + M2): 285 µL/min/mg
- Km at 30 min ([1]; M1 formation): 34 ± 12 µM
- Km at 30 min ([1]; M2 formation): 29 ± 12 µM
- GA glucuronidation activity [2]: < 0.04 nmol/min/mg
- Km at 20 min ([4]; male, Sprague-Dawley, rat, intestinal microsomes, pH 7.4): 3.8 ± 1.1 µM
- microsomal CLint ([4]; male, Sprague-Dawley, rat, rat intestinal microsomes, pH 7.4, Cltotal, RIM): 5000 µL/min/mg
- microsomal CLint ([5]; pH 7.4, Clint, M1 formation, Vmax/Km): 7 µL/min/mg
- microsomal CLint ([5]; pH 7.4, Clint, M2 formation, Vmax/Km): 10 µL/min/mg
- microsomal CLint ([5]; pH 7.4, Cltotal, M1 + M2): 17 µL/min/mg
- Km at 60 min ([5]; M1 formation): 6.3 ± 3.6 µM
- Km at 60 min ([5]; M2 formation): 24.2 ± 5.7 µM
- catalytic activity of UGT1A8 relative to other isoforms (UGT1A8; 2 µM GA, 0.1 mg/mL recombinant UGTs, 60 min): more than 5 fold
- KSI (UGT1A8; UGT1A8, M2 formation): 1.7 ± 0.4 µM
- microsomal CLint (UGT1A8; human, recombinant UGT1A8, pH 7.4): 172 µL/min/mg
- Clint of UGT1A8 relative to other isoforms (UGT1A8; recombinant UGTs): more than 5 fold
- microsomal CLint (UGT1A3): 29 µL/min/mg
- Clint of HIM relative to HLM ([6]; GA glucuronidation, Table 2): more than 100 fold
- microsomal CLint ([6]; both, human, pH 7.4, Clint, HIM, M2 formation): 2010 µL/min/mg
- microsomal CLint ([6]; both, human, pH 7.4, Clint, HIM, M2 formation (text)): 2000 µL/min/mg
- microsomal CLint ([6]; both, human, pH 7.4, Cltotal, HIM): 2010 µL/min/mg
- Km at 20 min ([6]; both, human, intestinal microsomes, pH 7.4): 8.3 ± 3.5 µM
SMILES: CC1(C)C=Cc2c(ccc3c2OC[C@@H](c2ccc(O)cc2O)C3)O1 [GA, glabridin]
- Vmax ([1]; M1 formation): 2.4 ± 0.5 nmol/min/mg
- Vmax ([1]; M2 formation): 6.2 ± 1.3 nmol/min/mg
- oral availability [3]: about 7.5 % of the oral dose
- KSI ([4]; RIM, M2 formation): 5.3 ± 2.5 µM
- Vmax ([4]; RIM, M2 formation): 19 ± 6 nmol/min/mg
- inhibition of CYP3A4 (CYP3A4): mechanism-based inhibitor
- Vmax ([5]; M1 formation): 0.044 ± 0.005 nmol/min/mg
- Vmax ([5]; M2 formation): 0.25 ± 0.03 nmol/min/mg
- Vmax ([6]; HIM, M2 formation): 16.7 ± 7.4 nmol/min/mg

Reference: article PMC6300978 (Chemico-biological interactions, 2015)
